Results on 42 compounds are retold here after patent US11427783B2, “Perfuming compositions” (Firmenich SA, priority 2016, dated 2022).

The nature of data set [1]: Log P (n-octanol/water) of perfuming compounds.
The nature of data set [2]: Volatility of perfuming compounds in air. Format: physicochemical.
The mark [3] stands for this setting: n-octanol/water, perfuming compounds having a fruity note (Table 6).
The mark [4] stands for this setting: perfuming compounds having a fruity note (Table 6).
[5] abbreviates: Table 10, perfuming compounds having a woody note.
The mark [6] stands for this setting: Table 5, perfuming compounds having a green note.
Where [7] appears, read: Table 6, perfuming compounds having a fruity note.
[8] abbreviates: Table 8, perfuming compounds having a sweet note.
[9] abbreviates: Table 9, perfuming compounds having a gourmand note.

Several values for one entry are separate records, joined by “and”; a condition that tells them apart may be missing. Equal values may be shown once. Read-outs that look alike come from different tables or passages of the source.

Take `CC/C=C\CCOC(=O)CCC` [(3Z)-3-hexen-1-yl butyrate]: the logP (usually the decadic logarithm of the partition coefficient of the neutral form, usually between octanol and water) in “physchem” (n-octanol/water) is 3.59. The “Log P (n-octanol/water)” value in data set [1] (setting [3]) was determined as 3.59.
In data set [2] (setting [4]), `CC1(C)[C@@H]2CC[C@@]1(C)C(=O)C2` had a Volatility of 555.04 μg/l air. In data set [1] (setting [3]), the “Log P (n-octanol/water)” value is listed as 2.50.
`C=C(C)CC(C(C)=O)C(=O)OCC` (racemic) showed a logP in “physchem” (n-octanol/water) of 2.15. Further, in data set [1] (setting [3]), the “Log P (n-octanol/water)” value is 2.15.
Take `CC1CCC2(O1)C(C)(C)CCCC2(C)O` (racemic): the “Volatility (μg/l air)” value in data set [2] (setting [5]) worked out at 84.04 μg/l air. Also, the “Log P (n-octanol/water)” value in data set [1] (setting [5]) is given as 3.51.
Compound `CCC(C)c1nccnc1OC` (stereo not drawn) [PYRAZOBUTYLE] yielded a Volatility in data set [2] (setting [6]) of 1617.21 μg/l air. Further, in data set [1] (setting [6]), the “Log P (n-octanol/water)” value came to 2.88.
The like results for `CC(=O)OCC=C(C)CCC=C(C)C` (mixture of isomers) [GERANYL ACETATE (A) + NERYL ACETATE (B)] were, in that order, 85.23 μg/l air and 3.99.
Compound `CC1=C[C@H](C)[C@H]2[C@H](CCC(C)(C)[C@H]2O)C1` (racemic) displayed a logP in the data set “physchem” (n-octanol/water) of 5.24. Further, the “Log P (n-octanol/water)” value in data set [1] (setting [7]) is recorded as 5.24.
Regarding `CC1(C)C2C[C@H]3CCC(=O)C=C3[C@@H]1C2`, in data set [2] (setting [5]), the “Volatility (μg/l air)” value is on record as 4.86 μg/l air. The “Log P (n-octanol/water)” value in data set [1] (setting [5]) was 3.00.
In “physchem” (n-octanol/water), `CCCCC/C(C=O)=C\c1ccccc1` [(E)-2-PENTYL-3-PHENYL-2-PROPENAL] gave a logP of 4.3. Further, in data set [1] (Table 7, citrus note), the “Log P (n-octanol/water)” value came to 4.30.
`CC/C=C\CCOC(=O)C/C=C\CC` [(3Z)-3-hexen-1-yl (3Z)-3-hexenoate] registered a logP in the data set “physchem” (n-octanol/water) of 4.22. For the same compound, the “Log P (n-octanol/water)” value in data set [1] (setting [8]), in data set [1] (setting [9]) and in data set [1] (setting [3]) was 4.22 in each case.
For `CCOC(=O)C(C)CC` (racemic) [(+−)-ethyl 2-methylbutanoate], in “physchem” (n-octanol/water), the logP was 2.58. For the same compound, the “Log P (n-octanol/water)” value in data set [1] (setting [3]) was found to be 2.58.
For the compound `CC1CCC2C(C)(C)C3CC12CCC3(C)O` (racemic), the “Volatility (μg/l air)” value in data set [2] (setting [5]) amounted to 11.83 μg/l air. Also, the logP in “physchem” turned out to be 5.39.
The compound `CCCC1CCCC(=O)O1` (racemic) [(+−)-6-propyltetrahydro-2H-pyran-2-one] returned a logP in “physchem” (n-octanol/water) of 1.47. In addition, in data set [1] (Table 7, citrus note), the “Log P (n-octanol/water)” value is 1.47.
Take `CC(=O)O[C@@H]1CC[C@@H]2C(C)(C)CCC[C@@]2(C)C1` (racemic): the “Volatility (μg/l air)” value in data set [2] (setting [5]) came to 14.41 μg/l air. The same compound displayed a logP in “physchem” (n-octanol/water) of 5.5.
As to `CC(=O)OCC=C(C)C` [3-methyl-2-buten-1-yl acetate], in “physchem” (n-octanol/water), the logP was determined as 2.19. Also, in data set [1] (setting [3]), the “Log P (n-octanol/water)” value was 2.19.
In the case of `C/C=C(\C)C(=O)OCC/C=C\CC`, the Volatility in data set [2] (setting [6]) came out at 168.78 μg/l air. The logP in “physchem” (n-octanol/water) was determined as 3.96.
The compound `CCCCCC/C=C/C(=O)OC` [methyl (2E)-2-nonenoate] registered a logP in “physchem” (n-octanol/water) of 4.05. Besides, the “Log P (n-octanol/water)” value in data set [1] (setting [3]) is 4.05.
`CCCCCC1C(=O)CCC1CC(=O)OC` (single isomer, unassigned; (+)): the “Volatility (μg/l air)” value in data set [2] (setting [5]) is on record as 1.71 μg/l air. Besides, the “Log P (n-octanol/water)” value in data set [1] (setting [5]) is given as 2.95.
In “physchem” (n-octanol/water), `CC1CC(C)(c2ccccc2)CO1` (racemic) had a logP of 3.02. Moreover, the “Log P (n-octanol/water)” value in data set [1] (setting [3]) is 3.02.
`CC(=O)C=CC1C(C)CCC(C)C1(C)C` (racemic): the “Volatility (μg/l air)” value in data set [2] (setting [5]) is 20.50 μg/l air. For the same compound, in data set [1] (setting [5]), the “Log P (n-octanol/water)” value is 4.62.
As for `CC/C=C\CCCCCO` [(Z)-6-NONEN-1-OL], the Volatility was determined as 6.91 μg/l air in data set [2] (Table 4, watery note) and 6.91 μg/l air in data set [2] (setting [6]). Moreover, the logP in the data set “physchem” and in the data set “physchem” (n-octanol/water) was 3.44 in each case.
Compound `CCCCCCOC(=O)c1ccccc1O` [HEXYL 2-HYDROXYBENZOATE] yielded a logP in the data set “physchem” (n-octanol/water) of 5.55. The “Log P (n-octanol/water)” value in data set [1] (setting [7]) is recorded as 5.55; in data set [1] (Table 7, citrus note) it was 5.55.
Regarding (2,2-DIMETHOXYETHYL)BENZENE, the Volatility in data set [2] (setting [6]) turned out to be 456.97 μg/l air. Besides, the “Log P (n-octanol/water)” value in data set [1] (setting [6]) was determined as 2.10.
`CCCCSCCCC` [DIBUTYL SULFIDE] returned a Volatility in data set [2] (setting [6]) of 2766.10 μg/l air. In “physchem” (n-octanol/water), this compound returned a logP of 4.86.
As to `CCCC(C)=CCOC(C)=O` (mixture of isomers), the Volatility in data set [2] (setting [6]) and in data set [2] (setting [4]) was 4131.05 μg/l air in each case. In addition, the “Log P (n-octanol/water)” value in data set [1] (setting [6]) and in data set [1] (setting [3]) was 3.11 in each case.
As to `O=C1CCC2(CCCCC2)O1` [1-oxaspiro[4.5]decan-2-one], the “Volatility (μg/l air)” value in data set [2] (setting [9]) is on record as 62.86 μg/l air. The same compound displayed a logP in the data set “physchem” (n-octanol/water) of 1.66.
For the compound `CC(CO)c1ccccc1` (racemic) [(+−)-2-phenyl-1-propanol], the Volatility in data set [2] (setting [6]) worked out at 142.19 μg/l air. This compound gave a logP in the data set “physchem” (n-octanol/water) of 1.74.
For the compound `C/C=C/C(=O)C1=C(C)C=CCC1(C)C`, the “Volatility (μg/l air)” value in data set [2] (setting [7]) is 119.10 μg/l air and 91.38 μg/l air; in data set [2] (setting [5]) it was 91.38 μg/l air. Also, the logP in the data set “physchem” (n-octanol/water) was 3.27.
For the compound `COC1(C)CCC23CC1C(C)(C)C2CCC3C` (racemic) [(+−)-8-methoxycedrane], in data set [2] (setting [5]), the “Volatility (μg/l air)” value came out at 42.22 μg/l air. For the same compound, in data set [1] (setting [5]), the “Log P (n-octanol/water)” value came out at 7.59.
Regarding `CCOC(C)OC1CCCCCCCCCCC1` (racemic) [(+−)-(1-ethoxyethoxy)cyclododecane], the “Volatility (μg/l air)” value in data set [2] (setting [5]) is recorded as 5.04 μg/l air. Also, the logP in the data set “physchem” (n-octanol/water) worked out at 6.68.
Take `CC(C)[C@@H]1CC[C@@H](C)CC1=NO`: the Volatility in data set [2] (setting [6]) amounted to 22.29 μg/l air. In “physchem” (n-octanol/water), this compound gave a logP of 2.81.
Turning to `CC/C=C\C[C@H]1C(=O)CC[C@@H]1CC(=O)OC` (racemic), the “Volatility (μg/l air)” value in data set [2] (setting [7]) is reported as 1.59 μg/l air. Also, the logP in “physchem” (n-octanol/water) is 2.33.
`C/C=C/c1ccc(OC)cc1` [1-methoxy-4-[(1E)-1-propen-1-yl]benzene]: the “Volatility (μg/l air)” value in data set [2] (setting [8]) and in data set [2] (setting [9]) was 184.60 μg/l air each time. In the data set “physchem”, this compound came in with a logP of 3.58.
The compound `CCCCCCCC=O` [OCTANAL] displayed a Volatility in data set [2] (setting [6]) of 4147.61 μg/l air. This compound returned a logP in the data set “physchem” (n-octanol/water) of 2.94.
As for `CCC(=O)O[C@H]1C[C@@H]2CC[C@@]1(C)C2(C)C`, the “Volatility (μg/l air)” value in data set [2] (setting [5]) turned out to be 216.42 μg/l air. This compound also returned a logP in the data set “physchem” (n-octanol/water) of 4.66.
The matching figures for `CC1=CCC(CCC(C)C(C)O)C1(C)C` (racemic): 5.22 μg/l air and 4.68.
With `CC(=O)O[C@@H]1C(C)(C)CCC[C@]12CC=C(C)C[C@H]2C` (racemic), the “Volatility (μg/l air)” value in data set [2] (setting [5]) was found to be 8.25 μg/l air. In “physchem” (n-octanol/water), this compound yielded a logP of 6.44.
In the case of `C=CC1(C)CCCC(C)(C)O1` (racemic), the Volatility in data set [2] (setting [6]) was 23116.66 μg/l air. Besides, the logP in “physchem” (n-octanol/water) is 3.59.
In the case of `C[C@@H]1CC[C@H]2[C@H](C)C(=O)O[C@@H]2C1`, the “Volatility (μg/l air)” value in data set [2] (setting [9]) is recorded as 74.03 μg/l air. Also, the logP in “physchem” (n-octanol/water) stood at 2.11.
Turning to `CC1COCc2cc3c(cc21)C(C)(C)C(C)C3(C)C` (racemic), in data set [2] (setting [7]), the “Volatility (μg/l air)” value came to 1.59 μg/l air. Moreover, the logP in the data set “physchem” stood at 6.57.
Take `CCCCCCCCC1CCC(=O)O1` (racemic) [(+−)-5-octyldihydro-2(3H)-furanone]: the “Volatility (μg/l air)” value in data set [2] (setting [7]) is 1.44 μg/l air. Besides, the logP in “physchem” (n-octanol/water) turned out to be 3.82.
Take `CC(=O)/C=C/C1=C(C)CCCC1(C)C` [(3E)-4-(2,6,6-trimethyl-1-cyclohexen-1-yl)-3-buten-2-one]: the “Volatility (μg/l air)” value in data set [2] (setting [5]) is reported as 35.41 μg/l air. For the same compound, the logP in the data set “physchem” (n-octanol/water) stood at 3.88.
